Results published in PubChem BioAssay AID1963439 (Molecular Pharmacology Branch, DTP, NCI, 2024).

Tested on: NCI-H196 complex spheroids with HUVEC/MSC, growth % T/C
Test: Anticancer human tumor NCI-H196 cell line growth inhibition [Asc];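 note: spheroids exposed to compound for 7 days before measurement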;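 for viability, T/C: 100% = DMSO vehicle control wells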
Settings: for IC50: curve of first compound; for viability, T/C: stronger effect = lower value
Method: Multicellular complex tumor spheroid response to apoptosis pathway targeting inhibitors Alrizomadlin, Pelcitoclax, and Dasminapant in combination with a variety of drugs and investigational agents in selected tumor cell lines
The MDM2 inhibitor alrizomadlin, the Bcl-2/Bcl-xL inhibitor pelcitoclax, and the IAPs inhibitor dasminapant were evaluated both individually and in combination with standard of care and investigational anticancer small molecules within a complex spheroid model of solid tumors. . Complex spheroids include a stromal component modeled by human endothelial cells (HUVEC) and fibroblasts modeled by human mesenchymal stem cells (MSCs). The concentration ranges selected for each drug and investigational agent were based upon clinically achievable concentrations if the clinical Cmax of the agent was known.
Compounds. The drugs and investigational agents: alrizomadlin (APG-115; NSC831270), pelcitoclax (APG-1252; NSC835773), dasminapant (APG-1387;NSC834197), TAK-243 (NSC785004), copanlisib (NSC809693), olaparib (NSC753686), talazoparib (NSC767125), cobimetinib (NSC 768068), eltanexor (KPT-8602, NSC 794443), abemaciclib (NSC 768073), sotorasib (NSC818433), adagrasib (NSC 831453), MRTX-1133 (NSC 836407), Iadademestat (ORY1001, NSC 806812), and RMC-4630 (NSC839698), were obtained from the NCI Developmental Therapeutics Program Chemical Repository. The FDA-approved anticancer drug set is available from the Developmental Therapeutics Program at https://dtp.cancer.gov/organization/dscb/obtaining/available plates.htm. […] The stock solutions were prepared in dimethyl sulfoxide (DMSO, Sigma-Aldrich, St. Louis, MO, cat. D2650) at 800-fold the tested concentration and stored at -70 degrees C prior to their use. All drugs and investigational agents were tested over a range starting from a high concentration at or near the clinical Cmax and decreasing in half-log increments. If the clinical Cmax for an agent had not been determined, the highest concentration tested was 10 microM.
The patient-derived cancer (PDC) cell lines include five colon adenocarcinomas: 186277-243-T-J2-PDC, 616215-338-R-J1-PDC, 439559-082-T-J2-PDC, 463943-066-T-J2-PDC, and 519858-162-T-J1-PDC; three pancreatic carcinomas: 323965-272-R-J2-PDC, 521955-158-R6-J3-PDC, and 521955-158-R2-J5-PDC; two uterine sarcomas: 327498-152-R-J2-PDC and 993429-296-R-J1-PDC; two rhabdomyosarcomas: 755483-174-R-J1-PDC and 772245-204-R-J1-PDC; two soft tissue sarcomas: 126254-015-R-J1-PDC and 494315-158-R-J1-PDC; two malignant fibrous histiocytomas: 317291-083-R-J1-PDC and 596521-263-R-J1-PDC; two breast carcinomas: 171881-019-R-J1-PDC and 885512-296-R-J2-PDC; and one ovarian carcinoma: 6556581-035-R-J-PDC were obtained from the NCI PDMR, (https://pdmr.cancer.gov). The established cell lines HSSY-2 synovial sarcoma (RRID:CVCL 8719), SYO-1 synovial sarcoma (RRID:CVCL_7146), MPNST malignant peripheral neural sheath tumor were obtained from the Sloan Kettering Institute. The following established cell lines were purchased from the American Type Culture Collection (ATCC, Manassas, VA), Sor the received from the NCI repository:, PANC-1 pancreatic carcinoma (CRL-1469, RRID:CVCL_0480), OVCAR-5 ovarian carcinoma (RRID:CVCL_1628), OVCAR-8 ovarian carcinoma (RRID:CVCL_1629), , MCF-7 breast carcinoma (CRL-12584, RRID:CVCL_0031), MDA-MB-231 breast carcinoma (CRL-12532, RRID:CVCL_0062), NCI-H1876 small cell lung carcinoma (CRL-5902, RRID:CVCL_1503), NCI-H510A small cell lung carcinoma (HTB-184, RRID:CVCL_1565), NCI-H1417 (CRL-5869, RRID:CVCL_1469), and NCI-H196 small cell lung carcinoma (CRL-5823, RRID:CVCL_1509). Dr. Peter Houghton (Greehey Children's Cancer Research Institute, University of Texas Health Science Center, San Antonio, TX) provided Rh-18 rhabdomyosarcoma (RRID:CVCL_1659). Pooled donor human umbilical vein endothelial cells (HUVEC, Lonza, cat. CC-2519) and human mesenchymal stem cells (hMSC, Lonza, cat. PT-2501) were purchased from Lonza (Walkersville, MD).
Cell Culture. […]

In the case of `C=CC(=O)N1CCN(c2nc(=O)n(-c3c(C)ccnc3C(C)C)c3nc(-c4c(O)cccc4F)c(F)cc23)C(C)C1` (stereo not given) + Cc1c(S(C)(=O)=O)c(-c2cc(F)cc(N3CCN(c4ccc(NS(=O)(=O)c5ccc(NC(CCN6CCC(C(=O)OCCCP(=O)(O)O)CC6)CSc6ccccc6)c(S(=O)(=O)C(F)(F)F)c5)cc4)CC3)c2)c(-c2ccc(Cl)cc2)n1C(C)C, the IC50 (second compound 0.1 µM) is reported as > 10000 nM, the IC50 (second compound 0.316 µM) is reported as > 10000 nM and the IC50 (second compound 1 µM) is reported as > 10000 nM. For the same molecule, the IC50 (second compound 3.16 µM) was > 10000 nM, the IC50 (second compound 10 µM) was > 10000 nM and the viability, T/C (second compound 0.1 µM, first compound 0.0316 µM) was 103%. For the same molecule, the viability, T/C (second compound 0.1 µM, first compound 0.1 µM) was 93.2%, the viability, T/C (second compound 0.1 µM, first compound 0.316 µM) was 96.1% and the viability, T/C (second compound 0.1 µM, first compound 1 µM) was 102%. It also gave a viability, T/C (second compound 0.1 µM, first compound 3.16 µM) of 96%, a viability, T/C (second compound 0.1 µM, first compound 10 µM) of 97.9% and a viability, T/C (second compound 0.316 µM, first compound 0.0316 µM) of 92.1%. For the same molecule, the viability, T/C (second compound 0.316 µM, first compound 0.1 µM) was 97.4%, the viability, T/C (second compound 0.316 µM, first compound 0.316 µM) was 96% and the viability, T/C (second compound 0.316 µM, first compound 1 µM) was 109%. It also gave a viability, T/C (second compound 0.316 µM, first compound 3.16 µM) of 104%, a viability, T/C (second compound 0.316 µM, first compound 10 µM) of 96.5% and a viability, T/C (second compound 1 µM, first compound 0.0316 µM) of 95.5%. For the same molecule, the viability, T/C (second compound 1 µM, first compound 0.1 µM) was 92.4%, the viability, T/C (second compound 1 µM, first compound 0.316 µM) was 93.9% and the viability, T/C (second compound 1 µM, first compound 1 µM) was 88%. The viability, T/C (second compound 1 µM, first compound 3.16 µM) was 110%, the viability, T/C (second compound 1 µM, first compound 10 µM) was 85.7% and the viability, T/C (second compound 3.16 µM, first compound 0.0316 µM) was 87.9%. For the same molecule, the viability, T/C (second compound 3.16 µM, first compound 0.1 µM) was 87.1%, the viability, T/C (second compound 3.16 µM, first compound 0.316 µM) was 83.8% and the viability, T/C (second compound 3.16 µM, first compound 1 µM) was 87.8%. For the same molecule, the viability, T/C (second compound 3.16 µM, first compound 3.16 µM) was 84.9%, the viability, T/C (second compound 3.16 µM, first compound 10 µM) was 80% and the viability, T/C (second compound 10 µM, first compound 0.0316 µM) was 73.9%. It also gave a viability, T/C (second compound 10 µM, first compound 0.1 µM) of 79.6%, a viability, T/C (second compound 10 µM, first compound 0.316 µM) of 79.8% and a viability, T/C (second compound 10 µM, first compound 1 µM) of 75.3%. The viability, T/C (second compound 10 µM, first compound 3.16 µM) was 78.1% and the viability, T/C (second compound 10 µM, first compound 10 µM) was 66.8%.
`Cc1nc(N2CCC3(CC2)COC(C)C3N)c(CO)nc1Sc1ccnc(N)c1Cl` (stereo not given) + CCN1C(C(=O)NC23CCC(C(=O)O)(CC2)CC3)C(c2cccc(Cl)c2F)C2(C(=O)Nc3cc(Cl)ccc32)C12CCCCC2 showed an IC50 (second compound 0.03 µM) of 1540 nM, an IC50 (second compound 0.0949 µM) of 1900 nM and an IC50 (second compound 0.3 µM) of 1600 nM. It also gave an IC50 (second compound 0.949 µM) of 1730 nM, an IC50 (second compound 3 µM) of 1570 nM and a viability, T/C (second compound 0.03 µM, first compound 0.00949 µM) of 102%. For the same molecule, the viability, T/C (second compound 0.03 µM, first compound 0.03 µM) was 103%, the viability, T/C (second compound 0.03 µM, first compound 0.0949 µM) was 115% and the viability, T/C (second compound 0.03 µM, first compound 0.3 µM) was 102%. It also gave a viability, T/C (second compound 0.03 µM, first compound 0.949 µM) of 64.6%, a viability, T/C (second compound 0.03 µM, first compound 3 µM) of 30.2% and a viability, T/C (second compound 0.0949 µM, first compound 0.00949 µM) of 108%. For the same molecule, the viability, T/C (second compound 0.0949 µM, first compound 0.03 µM) was 113%, the viability, T/C (second compound 0.0949 µM, first compound 0.0949 µM) was 109% and the viability, T/C (second compound 0.0949 µM, first compound 0.3 µM) was 95.5%. The viability, T/C (second compound 0.0949 µM, first compound 0.949 µM) was 74.1%, the viability, T/C (second compound 0.0949 µM, first compound 3 µM) was 34.5% and the viability, T/C (second compound 0.3 µM, first compound 0.00949 µM) was 118%. For the same molecule, the viability, T/C (second compound 0.3 µM, first compound 0.03 µM) was 124%, the viability, T/C (second compound 0.3 µM, first compound 0.0949 µM) was 119% and the viability, T/C (second compound 0.3 µM, first compound 0.3 µM) was 99.8%. For the same molecule, the viability, T/C (second compound 0.3 µM, first compound 0.949 µM) was 69.1%, the viability, T/C (second compound 0.3 µM, first compound 3 µM) was 27.9% and the viability, T/C (second compound 0.949 µM, first compound 0.00949 µM) was 124%. It also gave a viability, T/C (second compound 0.949 µM, first compound 0.03 µM) of 137%, a viability, T/C (second compound 0.949 µM, first compound 0.0949 µM) of 119% and a viability, T/C (second compound 0.949 µM, first compound 0.3 µM) of 107%. The viability, T/C (second compound 0.949 µM, first compound 0.949 µM) was 72.1%, the viability, T/C (second compound 0.949 µM, first compound 3 µM) was 29.9% and the viability, T/C (second compound 3 µM, first compound 0.00949 µM) was 136%. For the same molecule, the viability, T/C (second compound 3 µM, first compound 0.03 µM) was 130%, the viability, T/C (second compound 3 µM, first compound 0.0949 µM) was 121% and the viability, T/C (second compound 3 µM, first compound 0.3 µM) was 106%. It also gave a viability, T/C (second compound 3 µM, first compound 0.949 µM) of 67.4% and a viability, T/C (second compound 3 µM, first compound 3 µM) of 26.5%.
